Measured values: patent US6737383B1, “Herbicidal oxadiazolidines” (priority 1999, dated 2004)

Experiments:
wild oat = test: Test B pre/postemergence wild oat; type: in vivo, Avena fatua
Excerpt: (§1) Seeds of bedstraw (Galium aparine), blackgrass (Alopecurus myosuroides), surinam grass (Brachiaria decumbens), cocklebur (Xanthium strumarium), corn (Zea mays), crabgrass (Digitaria sanguinalis), giant foxtail (Setaria faberii), morningglory (Ipomoea hederacea), pigweed (Amaranthus retroflexus), rape (Brassica napus), soybean (Glycine max), sugar beet (Beta vulgaris), velvetleaf (Abutilon theophrasti), wheat (Triticum aestivum), wild oat (Avena fatua) and purple nutsedge (Cyperus rotundus) tubers were planted and treated preemnergence with test chemicals formulated in a non-phytotoxic solvent mixture which included a surfactant.
(§2) At the same time, these crop and weed species were also treated with postemergence applications of test chemicals formulated in the same manner. Plants ranged in height from 2 to 18 cm (1- to 4-leaf stage) for postemergence treatments. Plant species in the flood test consisted of rice (Oryza sativa), smallflower flatsedge (Cyperus difformis), duck salad (Heteranthera limosa) and bamyardgrass (Echinochloa crus-galli) grown to the 2-leaf stage for testing. Treated plants and controls were maintained in a greenhouse for twelve to sixteen days, after which all species were compared to controls and visually evaluated. Plant response ratings, summarized in Table B, are based on a scale of 0 to 10 where 0 is no effect and 10 is complete control. A dash (−) response means no test result.

bedstraw = test: Test B pre/postemergence bedstraw; type: in vivo, Galium aparine
Excerpt: as §1, §2

crabgrass = test: Test B pre/postemergence crabgrass; type: in vivo, Digitaria sanguinalis
Excerpt: as §1, §2

velvetleaf = test: Test B pre/postemergence velvetleaf; type: in vivo, Abutilon theophrasti
Excerpt: as §1, §2

purple nutsedge = test: Test B pre/postemergence purple nutsedge; type: in vivo, Cyperus rotundus
Excerpt: as §1, §2

wheat = test: Test B pre/postemergence wheat; type: in vivo, Triticum aestivum
Excerpt: as §1, §2

corn = test: Test B pre/postemergence corn; type: in vivo, Zea mays
Excerpt: as §1, §2

cocklebur = test: Test B pre/postemergence cocklebur; type: in vivo, Xanthium strumarium
Excerpt: as §1, §2

soybean = test: Test B pre/postemergence soybean; type: in vivo, Glycine max
Excerpt: as §1, §2

surinam grass = test: Test B pre/postemergence surinam grass; type: in vivo, Brachiaria decumbens
Excerpt: as §1, §2

giant foxtail = test: Test B pre/postemergence giant foxtail; type: in vivo, Setaria faberii
Excerpt: as §1, §2

sugar beet = test: Test B pre/postemergence sugar beet; type: in vivo, Beta vulgaris
Excerpt: as §1, §2

morningglory = test: Test B pre/postemergence morningglory; type: in vivo, Ipomoea hederacea
Excerpt: as §1, §2

rape = test: Test B pre/postemergence rape; type: in vivo, Brassica napus
Excerpt: as §1, §2

blackgrass = test: Test B pre/postemergence blackgrass; type: in vivo, Alopecurus myosuroides
Excerpt: as §1, §2

pigweed = test: Test B pre/postemergence pigweed; type: in vivo, Amaranthus retroflexus
Excerpt: as §1, §2

[1] = Preemergence, Rate 62 g/ha, scale of 0 to 10 where 0 is no effect and 10 is complete control
[2] = Preemergence, Rate 250 g/ha, scale of 0 to 10 where 0 is no effect and 10 is complete control
[3] = Preemergence, Rate 500 g/ha, scale of 0 to 10 where 0 is no effect and 10 is complete control
[4] = Rate 125 g/ha, Preemergence, scale of 0 to 10 where 0 is no effect and 10 is complete control
[5] = Rate 500 g/ha, Postemergence, scale 0 to 10, 0 no effect, 10 complete control
[6] = Rate 62 g/ha, Postemergence, scale of 0 to 10 where 0 is no effect and 10 is complete control
[7] = Rate 125 g/ha, Postemergence, scale 0 to 10

CC(C)N(C(=O)n1oc(=O)n(C(C)C(=O)c2ccccc2)c1=O)c1ccc(F)cc1 (stereo not shown) [Compound 260]
Wild oats plant response rating (wild oat; [1]): 0
Wild oats plant response rating (wild oat; [2]): 0
Plant response rating, Wild oats (wild oat; [3]): 0
Wild oats plant response rating (wild oat; [4]): 0
Wild oats plant response rating (wild oat; [5]): 0
Bedstraw plant response rating (bedstraw; [1]): 0
Plant response rating, Bedstraw (bedstraw; [3]): 5
Bedstraw plant response rating (bedstraw; [6]): 6
Bedstraw plant response rating (bedstraw; [7]): 7
Bedstraw plant response rating (bedstraw; [4]): 0
Crabgrass plant response rating (crabgrass; [1]): 0
Crabgrass plant response rating (crabgrass; [2]): 6
Plant response rating, Crabgrass (crabgrass; [3]): 9
Crabgrass plant response rating (crabgrass; [4]): 2
Plant response rating (0 to 10; 0 is no effect, 10 is complete control), Crabgrass (crabgrass; Rate 250 g/ha, Postemergence): 0
Crabgrass plant response rating (crabgrass; [5]): 0
Velvetleaf plant response rating (velvetleaf; [1]): 0
Velvetleaf plant response rating (velvetleaf; [2]): 0
Plant response rating, Velvetleaf (velvetleaf; [3]): 0
Velvetleaf plant response rating (velvetleaf; [4]): 0
Velvetleaf plant response rating (velvetleaf; [5]): 1
Nutsedge plant response rating (purple nutsedge; [1]): 0
Nutsedge plant response rating (purple nutsedge; [2]): 0
Nutsedge plant response rating (purple nutsedge; [4]): 0
Plant response rating (0 to 10; 0 is no effect, 10 is complete control), Nutsedge (purple nutsedge; Rate 250 g/ha, Postemergence): 0
Nutsedge plant response rating (purple nutsedge; [5]): 0
Wheat plant response rating (wheat; [1]): 0
Wheat plant response rating (wheat; [2]): 0
Plant response rating, Wheat (wheat; [3]): 0
Wheat plant response rating (wheat; [4]): 0
Wheat plant response rating (wheat; [5]): 0
Corn plant response rating (corn; [1]): 0
Corn plant response rating (corn; [2]): 0
Plant response rating, Corn (corn; [3]): 0
Corn plant response rating (corn; [6]): 0
Corn plant response rating (corn; [7]): 0
Corn plant response rating (corn; [4]): 0
Plant response rating (0 to 10; 0 is no effect, 10 is complete control), Corn (corn; Rate 250 g/ha, Postemergence): 0
Corn plant response rating (corn; [5]): 0
Cocklebur plant response rating (cocklebur; [1]): 0
Cocklebur plant response rating (cocklebur; [2]): 0
Plant response rating, Cocklebur (cocklebur; [3]): 0
Cocklebur plant response rating (cocklebur; [6]): 0
Cocklebur plant response rating (cocklebur; [7]): 0
Cocklebur plant response rating (cocklebur; [4]): 0
Plant response rating (0 to 10; 0 is no effect, 10 is complete control), Cocklebur (cocklebur; Rate 250 g/ha, Postemergence): 0
Cocklebur plant response rating (cocklebur; [5]): 0
Soybean plant response rating (soybean; [1]): 0
Soybean plant response rating (soybean; [2]): 0
Plant response rating, Soybean (soybean; [3]): 0
Soybean plant response rating (soybean; [4]): 0
Soybean plant response rating (soybean; [5]): 1
B. signalgrass plant response rating (surinam grass; [1]): 0
B. signalgrass plant response rating (surinam grass; [2]): 0
Plant response rating, B. signalgrass (surinam grass; [3]): 3
B. signalgrass plant response rating (surinam grass; [6]): 0
B. signalgrass plant response rating (surinam grass; Rate 125 g/ha, Postemergence, scale 0 (no effect) to 10 (complete control)): 0
B. signalgrass plant response rating (surinam grass; [4]): 0
Plant response rating (0 to 10; 0 is no effect, 10 is complete control), B. signalgrass (surinam grass; Rate 250 g/ha, Postemergence): 0
B. signalgrass plant response rating (surinam grass; [5]): 0
Giant foxtail plant response rating (giant foxtail; [1]): 3
Giant foxtail plant response rating (giant foxtail; [2]): 8
Plant response rating, Giant foxtail (giant foxtail; [3]): 10
Giant foxtail plant response rating (giant foxtail; [4]): 7
Plant response rating (0 to 10; 0 is no effect, 10 is complete control), Giant foxtail (giant foxtail; Rate 250 g/ha, Postemergence): 0
Giant foxtail plant response rating (giant foxtail; [5]): 0
Sugarbeets plant response rating (sugar beet; [1]): 0
Sugarbeets plant response rating (sugar beet; [2]): 0
Plant response rating, Sugarbeets (sugar beet; [3]): 0
Sugarbeets plant response rating (sugar beet; [4]): 0
Sugarbeets plant response rating (sugar beet; [5]): 3
Morningglory plant response rating (morningglory; [1]): 0
Morningglory plant response rating (morningglory; [2]): 0
Plant response rating, Morningglory (morningglory; [3]): 0
Morningglory plant response rating (morningglory; [4]): 0
Plant response rating (0 to 10; 0 is no effect, 10 is complete control), Morningglory (morningglory; Rate 250 g/ha, Postemergence): 3
Morningglory plant response rating (morningglory; [5]): 4
Rape plant response rating (rape; [1]): 0
Rape plant response rating (rape; [2]): 0
Plant response rating, Rape (rape; [3]): 0
Rape plant response rating (rape; [4]): 0
Plant response rating (0 to 10; 0 is no effect, 10 is complete control), Rape (rape; Rate 250 g/ha, Postemergence): 0
Rape plant response rating (rape; [5]): 0
Blackgrass plant response rating (blackgrass; [1]): 0
Blackgrass plant response rating (blackgrass; [2]): 2
Plant response rating, Blackgrass (blackgrass; [3]): 3
Blackgrass plant response rating (blackgrass; [6]): 0
Blackgrass plant response rating (blackgrass; [7]): 0
Blackgrass plant response rating (blackgrass; [4]): 0
Plant response rating (0 to 10; 0 is no effect, 10 is complete control), Blackgrass (blackgrass; Rate 250 g/ha, Postemergence): 0
Blackgrass plant response rating (blackgrass; [5]): 0
Redroot pigweed plant response rating (pigweed; [1]): 0
Redroot pigweed plant response rating (pigweed; [2]): 4
Plant response rating, Redroot pigweed (pigweed; [3]): 4
Redroot pigweed plant response rating (pigweed; [4]): 0
Plant response rating (0 to 10; 0 is no effect, 10 is complete control), Redroot pigweed (pigweed; Rate 250 g/ha, Postemergence): 3
Redroot pigweed plant response rating (pigweed; [5]): 6
